Laboratory results taken from PMC6001238, “Iterative Chemical Engineering of Vancomycin Leads to Novel Vancomycin Analogs With a High in Vitro Therapeutic Index” (Frontiers in Microbiology, 2018).
≈ marks a conversion by molar mass, not a printed value.

Key:
S. aureus VRSA = test: MIC, broth microdilution, vancomycin-resistant S. aureus (VRSA); type: cell-based, Staphylococcus aureus; conditions: for MIC: Staphylococcus aureus VRSA, read-out: MIC; for MIC-fold improvement vs. vancomycin: VRSA, ratio of MIC of vancomycin and MIC of analogue
How it was run: (§1)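 Serial dilutions in broth, set up per CLSI guidance, gave the MIC. Where noted, test analogues or comparator antibiotics were combined with vancomycin at 10 μM final. Controls: ultrapure water, broth without inoculum.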

[1] = test system: S. aureus VSSA (ATCC 6538); test: MIC, broth microdilution, vancomycin-sensitive S. aureus (VSSA/MSSA, ATCC 6538); type: cell-based, Staphylococcus aureus; conditions: for MIC: Staphylococcus aureus VSSA, read-out: MIC; for MIC-fold improvement vs. vancomycin: VSSA, ratio of MIC of vancomycin and MIC of analogue
How it was run: as §1

[2] = test system: human cervix carcinoma (HeLa) cells; test: Cytostatic activity, HeLa cell proliferation; type: cell-based; conditions: mean ± SD of three experiments; highest concentration tested 250 µM; 4 days; read-out: Toxicity (IC50) HeLa
How it was run: (§2)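 Suspensions (300,000–500,000 cells/mL) combined with equal volumes of diluted compound; 37°C; L1210 2 d / CEM 3 d / HeLa 4 d; counted by Coulter counter; IC50 vs untreated wells.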

[3] = test system: Murine leukemia (L1210) cells; test: Cytostatic activity, L1210 cell proliferation; type: cell-based; conditions: mean ± SD of three experiments; highest concentration tested 250 µM; 2 days; read-out: Toxicity (IC50) L1210
How it was run: as §2

MRSA KS89 = test: MIC, broth microdilution, MRSA KS89; type: cell-based, Staphylococcus aureus; conditions: for MIC-fold improvement vs. vancomycin: MRSA KS8, ratio of MIC of vancomycin and MIC of analogue; for MIC: Staphylococcus aureus MRSA KS8, read-out: MIC
How it was run: as §1

MRSA KS2 = test: MIC, broth microdilution, MRSA KS2; type: cell-based, Staphylococcus aureus; conditions: for MIC-fold improvement vs. vancomycin: MRSA KS2, ratio of MIC of vancomycin and MIC of analogue; for MIC: Staphylococcus aureus MRSA KS2, read-out: MIC
How it was run: as §1

E. faecalis VRE 53 = test: MIC, broth microdilution, vancomycin-resistant E. faecalis VRE 53 (VanA); type: cell-based, Enterococcus faecalis; conditions: for MIC: Enterococcus faecalis VRE 53 (vancomycin-resistant), read-out: MIC; for MIC-fold improvement vs. vancomycin: VRE 53, ratio of MIC of vancomycin and MIC of analogue
How it was run: as §1

[4] = test system: L1210, CEM and HeLa cell lines; test: Cytostatic activity, average or summary over L1210, CEM and HeLa; type: cell-based; conditions: average of L1210, CEM and HeLa; read-out: Toxicity (IC50) Average
How it was run: as §2

[5] = test system: human T-lymphocyte (CEM) cells; test: Cytostatic activity, CEM cell proliferation; type: cell-based; conditions: mean ± SD of three experiments; highest concentration tested 250 µM; 3 days; read-out: Toxicity (IC50) CEM
How it was run: as §2

E. faecalis VRE 29 = test: MIC, broth microdilution, vancomycin-resistant E. faecalis VRE 29 (VanA); type: cell-based, Enterococcus faecalis; conditions: for MIC: Enterococcus faecalis VRE 29 (vancomycin-resistant), read-out: MIC; for MIC-fold improvement vs. vancomycin: VRE 29, ratio of MIC of vancomycin and MIC of analogue
How it was run: as §1

E. faecalis VRE 6 = test: MIC, broth microdilution, vancomycin-resistant E. faecalis VRE 6 (VanA); type: cell-based, Enterococcus faecalis; conditions: for MIC: Enterococcus faecalis VRE 6 (vancomycin-resistant), read-out: MIC; for MIC-fold improvement vs. vancomycin: VRE 6, ratio of MIC of vancomycin and MIC of analogue
How it was run: as §1

E. faecalis VRE 37 = test: MIC, broth microdilution, vancomycin-resistant E. faecalis VRE 37 (VanA); type: cell-based, Enterococcus faecalis; conditions: for MIC: Enterococcus faecalis VRE 37 (vancomycin-resistant), read-out: MIC; for MIC-fold improvement vs. vancomycin: VRE 37, ratio of MIC of vancomycin and MIC of analogue
How it was run: as §1

MRSA KS6 = test: MIC, broth microdilution, MRSA KS6; type: cell-based, Staphylococcus aureus; conditions: for MIC-fold improvement vs. vancomycin: MRSA KS6, ratio of MIC of vancomycin and MIC of analogue; for MIC: Staphylococcus aureus MRSA KS6, read-out: MIC
How it was run: as §1

E. faecalis VSE 1 = test: MIC, broth microdilution, vancomycin-sensitive E. faecalis (VSE 1); type: cell-based, Enterococcus faecalis; conditions: for MIC: Enterococcus faecalis VSE 1 (vancomycin-sensitive), read-out: MIC; for MIC-fold improvement vs. vancomycin: VSE 1, ratio of MIC of vancomycin and MIC of analogue
How it was run: as §1

S. aureus VISA/HIP5827 = test: MIC, broth microdilution, vancomycin-intermediate S. aureus VISA HIP5827; type: cell-based, Staphylococcus aureus; conditions: for MIC: Staphylococcus aureus VISA/HIP5827, read-out: MIC; for MIC-fold improvement vs. vancomycin: VISA/HIP5827, ratio of MIC of vancomycin and MIC of analogue
How it was run: as §1

MRSA KS1 = test: MIC, broth microdilution, MRSA KS1; type: cell-based, Staphylococcus aureus; conditions: for MIC-fold improvement vs. vancomycin: MRSA KS1, ratio of MIC of vancomycin and MIC of analogue; for MIC: Staphylococcus aureus MRSA KS1, read-out: MIC
How it was run: as §1

Row | Compound | MIC (S. aureus VRSA) [µM] | MIC-fold improvement vs. vancomycin (S. aureus VRSA) | MIC [1] [µM] | MIC-fold improvement vs. vancomycin [1] | IC50 [2] [µM] | IC50 [3] [µM] | MIC-fold improvement vs. vancomycin (MRSA KS89) | MIC (MRSA KS89) [µM] | MIC-fold improvement vs. vancomycin (MRSA KS2) | MIC (MRSA KS2) [µM] | MIC (E. faecalis VRE 53) [µM] | MIC-fold improvement vs. vancomycin (E. faecalis VRE 53) | IC50 [4] [µM] | IC50 [5] [µM] | MIC (E. faecalis VRE 29) [µM] | MIC-fold improvement vs. vancomycin (E. faecalis VRE 29) | MIC (E. faecalis VRE 6) [µM] | MIC-fold improvement vs. vancomycin (E. faecalis VRE 6) | MIC (E. faecalis VRE 37) [µM] | MIC-fold improvement vs. vancomycin (MRSA KS6) | other results
1 | CN[C@H](CC(C)C)C(=O)N[C@H]1C(=O)N[C@@H](CC(N)=O)C(=O)N[C@H]2C(=O)N[C@H]3C(=O)N[C@H](C(=O)N[C@H](C(=O)NCC(=O)Nc4cc(C)cc(C)c4)c4cc(O)cc(O)c4-c4cc3ccc4O)[C@H](O)c3ccc(c(Cl)c3)Oc3cc2cc(c3O[C@@H]2O[C@H](CO)[C@@H](O)[C@H](O)[C@H]2O[C@H]2C[C@](C)(N)[C@H](O)[C@H](C)O2)Oc2ccc(cc2Cl)[C@H]1O [Vanc-11] | 12.5 (≈ 20.1 µg/mL) | 8 | 0.78 (≈ 1.26 µg/mL) | 1 | 87 ± 9 | > 250 | 2 | 0.39 (≈ 0.628 µg/mL) | 1 | 0.78 (≈ 1.26 µg/mL) | 12.5 (≈ 20.1 µg/mL) | 32 | 178 | 196 ± 15 | 6.25 (≈ 10.1 µg/mL) | 32 | 3.13 (≈ 5.04 µg/mL) | 64 | 12.5 (≈ 20.1 µg/mL) | 2 | MIC-fold improvement vs. vancomycin (E. faecalis VRE 37): 64; MIC (MRSA KS6): 0.39 µM (≈ 0.628 µg/mL); MIC (E. faecalis VSE 1): 0.39 µM (≈ 0.628 µg/mL); MIC-fold improvement vs. vancomycin (E. faecalis VSE 1): 4; MIC (S. aureus VISA/HIP5827): 0.78 µM (≈ 1.26 µg/mL); MIC-fold improvement vs. vancomycin (S. aureus VISA/HIP5827): 8; MIC-fold improvement vs. vancomycin (MRSA KS1): 1; MIC (MRSA KS1): 0.78 µM (≈ 1.26 µg/mL)
2 | CN[C@H](CC(C)C)C(=O)N[C@H]1C(=O)N[C@@H](CC(N)=O)C(=O)N[C@H]2C(=O)N[C@H]3C(=O)N[C@H](C(=O)N[C@H](C(=O)NCC(=O)Nc4ccc(C)cc4Cl)c4cc(O)cc(O)c4-c4cc3ccc4O)[C@H](O)c3ccc(c(Cl)c3)Oc3cc2cc(c3O[C@@H]2O[C@H](CO)[C@@H](O)[C@H](O)[C@H]2O[C@H]2C[C@](C)(N)[C@H](O)[C@H](C)O2)Oc2ccc(cc2Cl)[C@H]1O [Vanc-2] | 12.5 (≈ 20.4 µg/mL) | 8 | 0.78 (≈ 1.27 µg/mL) | 1 | 158 ± 84 | > 250 | 2 | 0.39 (≈ 0.636 µg/mL) | 2 | 0.39 (≈ 0.636 µg/mL) | 25 (≈ 40.7 µg/mL) | 16 | 219 | > 250 | 12.5 (≈ 20.4 µg/mL) | 32 | 12.5 (≈ 20.4 µg/mL) | 16 | 25 (≈ 40.7 µg/mL) | 2 | MIC (MRSA KS6): 0.39 µM (≈ 0.636 µg/mL); MIC (E. faecalis VSE 1): 0.39 µM (≈ 0.636 µg/mL); MIC-fold improvement vs. vancomycin (E. faecalis VSE 1): 4; MIC (S. aureus VISA/HIP5827): 0.78 µM (≈ 1.27 µg/mL); MIC-fold improvement vs. vancomycin (S. aureus VISA/HIP5827): 8; MIC-fold improvement vs. vancomycin (MRSA KS1): 2; MIC (MRSA KS1): 0.39 µM (≈ 0.636 µg/mL)
3 | CNC(CC(C)C)C(=O)NC1C(=O)NC(CC(N)=O)C(=O)NC2C(=O)NC3C(=O)NC(C(=O)NC(C(=O)NCC(=O)Nc4ccc(-c5ccc(OC)cc5)cc4)c4cc(O)cc(O)c4-c4cc3ccc4O)C(O)c3ccc(c(Cl)c3)Oc3cc2cc(c3OC2OC(CO)C(O)C(O)C2OC2CC(C)(N)C(O)C(C)O2)Oc2ccc(cc2Cl)C1O (stereo not drawn) [Vanc-57] | 1.56 (≈ 2.63 µg/mL) | 64 | 0.20 (≈ 0.338 µg/mL) | 4 | 41 ± 12 | 6.3 ± 0.2 | 2 | 0.39 (≈ 0.658 µg/mL) | 4 | 0.20 (≈ 0.338 µg/mL) | 12.5 (≈ 21.1 µg/mL) | 32 | 17 | 3.7 ± 0.2 | 3.13 (≈ 5.28 µg/mL) | 128 | 1.56 (≈ 2.63 µg/mL) | 128 | 1.56 (≈ 2.63 µg/mL) | 0.5 | MIC-fold improvement vs. vancomycin (E. faecalis VRE 37): 256; MIC (MRSA KS6): 1.56 µM (≈ 2.63 µg/mL); MIC (E. faecalis VSE 1): ≤0.05 µM; MIC-fold improvement vs. vancomycin (E. faecalis VSE 1): ≥32; MIC (S. aureus VISA/HIP5827): 0.39 µM (≈ 0.658 µg/mL); MIC-fold improvement vs. vancomycin (S. aureus VISA/HIP5827): 16; MIC-fold improvement vs. vancomycin (MRSA KS1): 8; MIC (MRSA KS1): 0.10 µM (≈ 0.169 µg/mL)
4 | CN[C@H](CC(C)C)C(=O)N[C@H]1C(=O)N[C@@H](CC(N)=O)C(=O)N[C@H]2C(=O)N[C@H]3C(=O)N[C@H](C(=O)N[C@H](C(=O)NCC(=O)Nc4cccc(F)c4)c4cc(O)cc(O)c4-c4cc3ccc4O)[C@H](O)c3ccc(c(Cl)c3)Oc3cc2cc(c3O[C@@H]2O[C@H](CO)[C@@H](O)[C@H](O)[C@H]2O[C@H]2C[C@](C)(N)[C@H](O)[C@H](C)O2)Oc2ccc(cc2Cl)[C@H]1O [Vanc-10] | 12.5 (≈ 20 µg/mL) | 8 | 0.78 (≈ 1.25 µg/mL) | 1 | 214 ± 51 | > 250 | 2 | 0.39 (≈ 0.624 µg/mL) | 2 | 0.39 (≈ 0.624 µg/mL) | 12.5 (≈ 20 µg/mL) | 32 | 238 | > 250 | 12.5 (≈ 20 µg/mL) | 32 | 6.25 (≈ 10 µg/mL) | 32 | 12.5 (≈ 20 µg/mL) | 1 | MIC-fold improvement vs. vancomycin (E. faecalis VRE 37): 64; MIC (MRSA KS6): 0.78 µM (≈ 1.25 µg/mL); MIC (E. faecalis VSE 1): 0.78 µM (≈ 1.25 µg/mL); MIC-fold improvement vs. vancomycin (E. faecalis VSE 1): 2; MIC (S. aureus VISA/HIP5827): 0.78 µM (≈ 1.25 µg/mL); MIC-fold improvement vs. vancomycin (S. aureus VISA/HIP5827): 8; MIC-fold improvement vs. vancomycin (MRSA KS1): 2; MIC (MRSA KS1): 0.39 µM (≈ 0.624 µg/mL)
